Tests used:
[1] = test system: DLD-1 Flp-In T-REx and Lyn KO cells; assay: Level of Lyn / Lyn-GFP variants after NMT1/2 and DCAF10 siRNA, Western blot; assay type: cell-based, human
Text: To further investigate the role of the Nt-amino acid and its modification in DCAF10 recognition and DCAF10-dependent ubiquitination, we used the CRISPR/Cas9 technique to knock out Lyn in DLD-1 cell lines with T-REx Flp-In background (DLD-1 Lyn KO Flp-In T-REx) (Supplementary Fig. 7a–c). We then integrated Lyn^WT-GFP and two Nt-mutants (Lyn^G2A-GFP and Lyn^G2P-GFP) under a doxycycline-inducible promoter into the Flp-In cassette. Alanine (G2A) is expected to be efficiently acetylated by NatA, generating an Nt-acetylated Lyn mutant. Conversely, the proline (G2P) mutant, is expected not to be acetylated and may retain a free N-terminus[3],[36],[37]. Doxycycline-induced expression of Lyn^WT-GFP, Lyn^G2A-GFP, and Lyn^G2P-GFP was confirmed by Western blot, MS, and fluorescence microscopy (Supplementary Figs. 7d, e; 8a and Supplementary Data 6). While all constructs were ~2–5-fold higher expressed than endogenous Lyn, G2A and G2P were further elevated relative to WT, which may reflect increased stability when Nt-Gly/acetylation is altered (Supplementary Fig. 7e). […] Lyn^WT-GFP mirrored the behavior of endogenous Lyn under NMT1/2 siRNA treatment. Lyn levels decreased with NMT1/2 KD, but were rescued when siRNAs targeting both NMT1/2 and DCAF10 were applied (Fig. 6a, b). […] The weaker reduction of Lyn^WT-GFP may result from Lyn overexpression and the limiting availability of DCAF10.
(§1) Fig. 6 N-terminal glycine mutation abolishes DCAF10-dependent stability and ubiquitination. a DLD-1 Flp-In T-REx cells and Lyn KO cells expressing Lyn^WT-GFP, Lyn^G2A-GFP, or Lyn^G2P-GFP were induced for 24 h with 100 ng/mL doxycycline. Cells were treated with NMT1/2 siRNA, DCAF10 siRNA, or both (or left untreated) for 72 h. Representative WBs are shown. Filled circles represent siRNA treatment, empty circles untreated. b WB quantifications of Lyn levels normalized to vinculin. Purple: untreated with NMT1/2 siRNA; blue: treated with NMT1/2 siRNA. Mean ± s.d. with individual data points are shown (n = 3 independent biological replicates). c Schematic of ubiquitination experiments. Created in BioRender. […] Lysates have been treated with NMT1/2 RNAi for 72 h. i Quantification of in vitro ubiquitination assays. Mean ± s.d. with individual data points are shown (n = 3 independent ubiquitination assays). Volcano plots of Lyn-GFP^WT binding partners: j NMT1/2 siRNA ± doxycycline (Dox); k Control ± doxycycline; l NMT1/2 siRNA vs. control both with doxycycline. The −log10 adjusted p-value (two-sided Student’s t test with permutation-based multiple-testing correction; y-axis) is plotted against the log2 fold change (x-axis). Threshold for significance: −log10 p-value ≥ 1.3 (p ≤ 0.05), log2 fold change ≤ −1 or ≥ 1. DCAF10 and Lyn-GFP are marked in green, significant binding partners in purple and in blue, respectively. Source data are provided as a Source data file.
DLD-1 Lyn knockout (KO) Flp-In T-REx cells were generated by CRISPR/Cas9 electroporation using two guide RNAs targeting the LYN locus. Editing and clone validation were confirmed by genomic sequencing, Western blotting, and MS[51]. Stable cell lines expressing doxycycline-inducible Lyn-GFP (WT, G2A, or G2P) were established by FRT/Flp-mediated recombination and validated by antibiotic selection, Western blotting, and fluorescence microscopy. Detailed protocols are provided in the Supplementary Methods and Tables.
461 electroporated using the CM137 program. Following electroporation, the cells were kept […]

[2] = test system: DLD-1 Lyn KO Flp-In T-REx cells; assay: Direct ubiquitin blot of Lyn-GFP immunoprecipitates; assay type: cell-based, human; conditions: anti-GFP IP, anti-Ub blot, n = 3
Experimental: as §1, with “Threshold for significance: −log10 p-value ≥ 1.3 (p ≤ 0.05), log2 fold change ≤ −1 or ≥ 1. DCAF10 and Lyn-GFP are marked in green, significant binding partners in purple and in blue, respectively. Source data are provided as a Source data file.” left out
We next assessed the role of the Lyn Nt-residue for ubiquitination by performing two complementary experimental set-ups (Fig. 6c). […]

Lyn^WT-GFP: doxycycline-inducible C-terminally GFP-fused Lyn in DLD-1 Lyn KO cells
Level decrease following NMT1/2 KD ([1]; DLD-1, 72 h NMT1/2 siRNA, 24 h doxycycline 100 ng/mL, WB/vinculin, average, n = 3): 21%
Dependency on NMT1/2 and DCAF10 (in words) ([1]; DLD-1, 72 h siRNA): remained dependent on NMT1/2 and DCAF10
Level increase upon combined NMT1/2 and DCAF10 KD ([1]; DLD-1, 72 h siRNA, WB/vinculin, n = 3): 41.7%
Ubiquitination in cells (in words) [2]: ubiquitinated under both conditions, with a stronger signal in controls

Source: paper PMC12775124, “CUL4A-DDB1-DCAF10 is an N-recognin for N-terminally acetylated Src kinases” (Nature Communications, 2026)
